Data reported in patent US10604555B2, “GIP derivatives and uses thereof” (priority 2018, dated 2020).
Marks after values point to notes of the source that are not given here.

Legend:
[1] = tested on: diet-induced obese (DIO) mice; assay: Sub-chronic in vivo study in obese mice: food intake and body weight; parameters: species or system C57BL/6J mice; conditions: for effect on body weight (in words) / effect on food intake (in words) / Cumulative food intake (kcals) Day 14: DIO mice; for effect on body weight (in words) / effect on food intake (in words): Tables 6-8, compound 47 2 nmol/kg, GIP derivatives 30 nmol/kg; for Cumulative food intake (kcals) Day 14 / Absolute BW (grams) Day 14 / Change in BW (%) Day 14: once daily s.c.; for Cumulative food intake (kcals) Day 14 / Absolute BW (grams) Day 0 / Absolute BW (grams) Day 14 / Change in BW (%) Day 14: mean ± SEM; for Absolute BW (grams) Day 0: Day 0 (before treatment)
Source text: (§1) The purpose of this example is to assess the in vivo effect of the GIP derivatives of the present invention alone and in combination with a GLP-1 receptor agonist on food intake, body weight, and glucose tolerance in diet-induced obese (DIO) mice. The GLP-1 receptor agonist used for this example was a semaglutide-like molecule that has the same pharmacological properties as semaglutide, but a slightly different structure. The compound may be synthesised using methods known in the art, e.g. as described by methods of present Example 1 or as described in WO 2006/097537, example 4.
(§2) The animals were treated once daily with the GLP-1 receptor agonist (compound no. 47) and/or a GIP derivative of the present invention exemplified by compound no.'s 5, 25 and 31, to assess weight loss, efficacy and glucose tolerance. Animals and Diet
(§3) All animal protocols were approved by an Institutional Animal Care and Use Committee and Ethical Review Committee of Novo Nordisk. Animals were housed according to Novo Nordisk rodent housing standards, and were given ad libitum access to food and water under controlled lighting (12 h:12 h light/dark cycle; lights off 18:00-06:00), temperature (23±2° C.) and relative humidity (50±20%) conditions. DIO male C57BL/6J mice maintained on a high fat diet (45% kcal fat, RD12451, Research Diets, New Brunswick, N.J., USA) for 22 weeks were obtained from Charles River (France). Upon arrival, the mice were single-housed (one mouse per cage) and allowed to acclimate to their new environment for two weeks prior to the start of treatment.
(§4) Prior to initiation of the study, animals were single-housed and acclimated to handling for 7 days. The DIO mice were distributed into groups (n=8/group) such that statistical variations in the mean and standard deviations of fat mass and body weight were minimized between groups. Animals were dosed once daily, subcutaneously with either vehicle or test compound.
(§5) All compounds in the study were formulated in the following buffer: 50 mM phosphate; 70 mM sodium chloride; 0.05% polysorbate 80, pH 7.4. Dosing solutions were formulated in glass vials and stored at 2-8° C. Dosing solutions were brought to room temperature before dosing and returned to 2-8° C. after dosing.
Body weight (BW) and food intake were measured immediately prior to dosing each day. The average starting body weight of the mice prior to start of treatment was 45.2±0.2 grams.

[2] = tested on: diet-induced obese (DIO) mice; assay: Sub-chronic in vivo study in obese mice: IPGTT (intraperitoneal glucose tolerance test); parameters: species or system C57BL/6J mice; conditions: for effect on glucose tolerance (in words): DIO mice, Tables 6-8, compound 47 2 nmol/kg, GIP derivatives 30 nmol/kg; for iAUC, IPGTT (mM*min) Day 15: i.p. glucose 2 g/kg, 4 h fasted, baseline subtracted AUC, mean ± SEM
Source text: as §1, §2, §3, §4, §5
On the day of the glucose tolerance test (day 15), animals were fasted for 4 h. Food was removed and animals were transferred to fresh cages. Animals had access to water but not to food. Tail blood glucose levels were measured and mice were injected (t=0) with an intra-peritoneal (i.p.) glucose load of 2 g/kg (200 mg/ml glucose solution, dose volume 10 ml/kg). Tail blood glucose levels were measured at times 0, 15, 30, 60, 90, 120 minutes following the i.p. glucose load. Stratification of the animals during the IPGTT was such that for example two mice from group 1 are dosed followed by two mice from group 2, 3, 4, before the next two mice from group 1, 2, 3 etc. were handled. This was to allow for equal distribution of “time of day” throughout all groups.

[3] = Study 1, 47 2 nmol/kg and/or 5 30 nmol/kg
[4] = Study 2, compound no. 47 2 nmol/kg and/or compound no. 25 30 nmol/kg
[5] = Study 2, 47 2 nmol/kg and/or 25 30 nmol/kg
[6] = Study 3, 47 2 nmol/kg, 31 30 nmol/kg

| Substance | effect on body weight (in words) [1] | effect on food intake (in words) [1] | Cumulative food intake (kcals) Day 14 ([1]; Study 1, compound no. 47 2 nmol/kg and/or compound no. 5 30 nmol/kg) | Absolute BW (grams) Day 0 ([1]; Study 1) | Absolute BW (grams) Day 14 [1, 3] | Change in BW (%) Day 14 [1, 3] | Cumulative food intake (kcals) Day 14 [1, 4] | Absolute BW (grams) Day 0 ([1]; Study 2) | Absolute BW (grams) Day 14 [1, 5] | Change in BW (%) Day 14 [1, 5] | Cumulative food intake (kcals) Day 14 ([1]; Study 3, compound no. 47 2 nmol/kg and GIP compound no. 31 30 nmol/kg) | Absolute BW (grams) Day 0 ([1]; Study 3) | Absolute BW (grams) Day 14 [1, 6] | Change in BW (%) Day 14 [1, 6] | effect on glucose tolerance (in words) [2] | iAUC, IPGTT (mM*min) Day 15 [2, 3] | iAUC, IPGTT (mM*min) Day 15 [2, 5] | iAUC, IPGTT (mM*min) Day 15 [2, 6] |
| --- | --- | --- | --- | --- | --- | --- | --- | --- | --- | --- | --- | --- | --- | --- | --- | --- | --- | --- |
| N^6,26-{18-[N-(17-carboxyheptadecanoyl)-D-γ-glutamyl]-10-oxo-3,6,12,15-tetraoxa-9,18-diazaoctadecanoyl}-[8-(2-amino-2-propanoic acid), 34-L-arginine]human glucagon-like peptide 1(7-37) [Compound 47] | body weight loss | reduction in food intake | 146.3 ± 6.8 ^b kcals | 44.4 ± 1.0 ^a grams | 38.5 ± 1.2 ^bc grams | −13.2 ± 3.3 ^c % | 134.9 ± 4.3 ^b kcals | 40.2 ± 1.2 ^a grams | 34.8 ± 1.2 ^b grams | −13.6 ± 0.7 ^c % | 140.2 ± 6.7 ^b kcals | 45.2 ± 1.4 ^a grams | 40.0 ± 1.3 ^a grams | −11.2 ± 1.6 ^c % | improvement in glucose tolerance | 543 ± 94 ^a mM*min | 503 ± 55 ^b mM*min | 1441 ± 135 ^c mM*min |
| N{1}-acetyl,N{Epsilon-24}-[(4S)-4-carboxy-4-[[(4S)-4-carboxy-4-[[(4S)-4-carboxy-4-[[4-[(19-carboxynonadecanoylamino)methyl]cyclohexanecarbonyl]amino]butanoyl]-amino]butanoyl]amino]butanoyl]-[D-Tyr1,Nle14,Arg18,Aib20,Lys24]-hGIP(1-31) [Compound 25] | minor body weight loss | minor effect on food intake | – | – | – | – | 170.2 ± 7.3 ^b kcals | 41.1 ± 1.0 ^a grams | 38.8 ± 1.0 ^a grams | −5.6 ± 0.8 ^b % | – | – | – | – | improved glucose tolerance | – | 518 ± 36 ^b mM*min | – |
